Assay results: US10358435B2, “Triazolyl pyrimidinone compounds as PDE2 inhibitors” (Merck Sharp & Dohme Corp., priority 2015, dated 2019)
pKi: −log10 of the molar value.

Biological target: human PDE2A1 (Homo sapiens (Human), UniProt O00408)
Experiment: IMAP fluorescence polarization assay, human PDE2A1 (PDE selectivity panel)
Type: biochemical
Conditions: for pKi: FAM cAMP 50 nM with 1000 nM cGMP
Method: The activity of the compounds in accordance with the present invention as PDE2 inhibitors may be readily determined using a fluorescence polarization (FP) methodology (Huang, W., et al., J. Biomol Screen, 2002, 7: 215).
Dose-inhibition profiles for each compound were characterized by fitting the mP data to a four-parameter equation given below.
Selectivity for PDE2, as compared to other PDE families, was assessed using the IMAP® technology. Human PDE10A2 enzyme was prepared from cytosolic fractions of transiently transfected HEK cells. All other PDE's were GST Tag human enzyme expressed in insect cells and were obtained from BPS Bioscience (San Diego, Calif.): PDE1A (Cat#60010), human PDE2A1 (Cat#60020), PDE3A (Cat#60030), PDE4A1A (Cat#60040), PDE5A1 (Cat#60050), PDE6C (Cat#60060), PDE7A (Cat#60070), PDE8A1 (Cat#60080), PDE9A2 (Cat#60090), PDE11A4 (Cat#60110).
Assays for PDE 1 through 11 were performed in parallel at room temperature in 384-well microtiter plates with an incubation volume of 20.2 μL. Solutions of test compounds were prepared in DMSO and serially diluted with DMSO to yield 30 μL of each of ten solutions differing by 3-fold in concentration, at 32 serial dilutions per plate. […] A Labcyte POD 810 (Labcyte, Sunnyvale, Calif.) was used to dispense 200 nL from each well of the titration plate to make eleven copies of the assay plate for each titration, one copy for each PDE enzyme. A solution of each enzyme (dilution from aliquots, sufficient to produce 20% substrate conversion) and a separate solution of FAM-labeled cAMP or FAM-labeled cGMP from Molecular Devices (Sunnyvale, Calif., product # R7506 or cGMP#R7508), at a final concentration of 50 nM were made in the assay buffer (10 mM Tris HCl, pH 7.2, 10 mM MgCl2, 0.05% NaN3 0.01% Tween-20, and 1 mM DTT). Note that the substrate for PDE2 is 50 nM FAM cAMP containing 1000 nM of cGMP. The enzyme and the substrate were then added to the assay plates in two consecutive additions of 10 μL and then shaken to mix. The reaction was allowed to proceed at room temperature for 60 minutes. A binding solution was then made from the kit components, comprised of 80% Solution A, 20% Solution B and binding reagent at a volume of 1/600 the total binding solution. The enzymatic reaction was stopped by addition of 60 μL of the binding solution to each well of the assay plate. The plates were sealed and shaken for 10 seconds. The plates were incubated at room temperature for one hour, then the parallel and perpendicular fluorescence was measured using a Tecan Genios Pro plate reader (Tecan, Switzerland). The apparent inhibition constants for the compounds against all 11 PDE's was determined from the parallel and perpendicular fluorescent readings as described for PDE10 FP assay using the following apparent KM values for each enzyme and substrate combination: PDE1A (FAM cGMP) 70 nM, human PDE2A1 (FAM cAMP) 10,000 nM, PDE3A (FAM cAMP) 50 nM, PDE4A1A (FAM cAMP) 1500 nM, PDE5A1 (FAM cGMP) 400 nM, PDE6C (FAM cGMP) 700 nM, PDE7A (FAM cAMP) 150 nM, PDE8A1 (FAM cAMP) 50 nM, PDE9A2 (FAM cGMP) 60 nM, PDE10A2 (FAM cAMP) 150 nM, PDE11A4 (FAM cAMP) 1000 nM. The intrinsic PDE2 inhibitory activity of a compound which may be used in accordance with the present invention may be determined by these assays.

Sequence of human PDE2A1 (O00408 other isoform, or with tags, fused parts or gaps): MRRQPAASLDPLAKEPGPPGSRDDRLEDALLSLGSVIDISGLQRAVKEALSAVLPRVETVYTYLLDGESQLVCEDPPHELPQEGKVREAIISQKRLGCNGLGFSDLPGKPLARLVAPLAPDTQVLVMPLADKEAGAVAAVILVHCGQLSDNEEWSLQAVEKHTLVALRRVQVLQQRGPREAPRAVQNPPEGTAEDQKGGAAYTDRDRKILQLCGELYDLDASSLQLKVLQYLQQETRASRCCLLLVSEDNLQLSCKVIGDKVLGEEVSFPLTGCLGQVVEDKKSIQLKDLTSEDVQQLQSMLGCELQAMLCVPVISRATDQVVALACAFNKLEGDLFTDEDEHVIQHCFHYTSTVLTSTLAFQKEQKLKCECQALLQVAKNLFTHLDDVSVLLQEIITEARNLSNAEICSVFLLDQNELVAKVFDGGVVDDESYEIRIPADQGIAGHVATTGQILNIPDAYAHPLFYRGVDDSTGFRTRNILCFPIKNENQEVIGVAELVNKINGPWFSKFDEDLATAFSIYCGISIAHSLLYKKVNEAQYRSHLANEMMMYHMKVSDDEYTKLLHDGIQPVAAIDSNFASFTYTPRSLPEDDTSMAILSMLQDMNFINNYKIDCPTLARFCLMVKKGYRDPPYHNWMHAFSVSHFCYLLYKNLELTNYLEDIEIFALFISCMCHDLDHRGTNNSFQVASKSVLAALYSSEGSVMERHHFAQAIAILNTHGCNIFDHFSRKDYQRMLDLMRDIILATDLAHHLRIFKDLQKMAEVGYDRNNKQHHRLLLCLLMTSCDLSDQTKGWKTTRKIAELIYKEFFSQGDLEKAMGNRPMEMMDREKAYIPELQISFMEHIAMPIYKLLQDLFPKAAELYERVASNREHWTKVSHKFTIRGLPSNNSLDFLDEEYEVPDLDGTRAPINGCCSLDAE

pKi	inhibition at 3 µM	SMILES
6.74		Cc1nc(-c2nnn3c2CCC[C@]3(C)c2ccc(OC(F)(F)F)cc2)cc(=O)[nH]1 (single isomer, unassigned) [Example 76]
7.33		CCc1ccc(C(C)n2cc(-c3cc(=O)[nH]c(C)n3)nn2)c(Cl)c1 (single isomer, unassigned) [Example 20, (S)- or (R)-6-(1-(1-(2-chloro-4-ethylphenyl)ethyl)-1H-1,2,3-triazol-4-yl)-2-methylpyrimidin-4(3H)-one]
7.28		Cc1nc(-c2cnn(C(C)c3ccc(C(F)(F)F)cc3C)n2)cc(=O)[nH]1 (single isomer, unassigned) [Example 5, (R)- or (S)-2-methyl-6-(2-(1-(2-methyl-4-(trifluoromethyl)phenyl)ethyl)-2H-1,2,3-triazol-4-yl)pyrimidin-4(3H)-one]
7.38		Cc1nc(-c2cn([C@@H](C)c3ccc(C(F)(F)F)cc3Cl)nn2)cc(=O)[nH]1 (single isomer, unassigned) [Example 35]
7.00		CCc1ccc(C(C)(C)n2cc(-c3cc(=O)[nH]c(C)n3)nn2)c(C)c1 [Example 33, 6-(1-(2-(4-ethyl-2-methylphenyl)propan-2-yl)-1H-1,2,3-triazol-4-yl)-2-methylpyrimidin-4(3H)-one]
6.95		Cc1nc(-c2cnn(C(C)c3ccc(C(F)(F)F)cc3F)n2)cc(=O)[nH]1 (single isomer, unassigned) [Example 3, (R)- or (S)-6-(2-(1-(2-fluoro-4-(trifluoromethyl)phenyl)ethyl)-2H-1,2,3-triazol-4-yl)-2-metylpyrimidin-4(3H)-one]
8.31		Cc1nc(-c2cn(C(C)(C)c3ccc(C4CC4)cc3Cl)nn2)cc(=O)[nH]1 [Example 34, 6-(1-(2-(2-chloro-4-cyclopropylphenyl)propan-2-yl)-1H-1,2,3-triazol-4-yl)-2-methylpyrimdin-4(3H)-one]
8.01		Cc1nc(-c2cn(C(c3ccc(C(F)(F)F)cc3F)C3CC3)nn2)cc(=O)[nH]1 (single isomer, unassigned) [Example 42]
6.75		Cc1nc(-c2nnn3c2CCCC3(C)c2ccc(C(F)(F)F)cc2F)cc(=O)[nH]1 (single isomer, unassigned) [Example 59, (S)- or (R)-6-(7-(2-fluoro-4-(trifluoromethyl)phenyl)-7-methyl-4,5,6,7-tetrahydro-[1,2,3]triazolo[1,5-a]pyridin-3-yl)-2-methylpyrimidin-4(3H)-one]
6.21		CCC1(c2ccc(C(F)(F)F)cc2)CCCc2c(-c3cc(=O)[nH]c(C)n3)nnn21 (single isomer, unassigned) [Example 56, (R)- or (S)-6-(7-ethyl-7-(4-(trifluoromethyl)phenyl)-4,5,6,7-tetrahydro-[1,2,3]triazolo[1,5-a]pyridin-3-yl)-2-methylpyrimidin-4(3H)-one]
8.08		Cc1nc(-c2nnn3c2CCC[C@]3(C)c2ccc(C(F)(F)F)cc2C)cc(=O)[nH]1 (single isomer, unassigned) [Example 79]
6.06		Cc1nc(-c2nnc3n2CCCC3(C)c2ccc(C(F)(F)F)cc2)cc(=O)[nH]1 (single isomer, unassigned) [Example 72, (S)- or (R)-2-methyl-6-(8-methyl-8-(4-(trifluoromethyl)phenyl)-5,6,7,8-tetrahydro-[1,2,4]triazolo[4,3-a]pyridin-3-yl)pyrimidin-4(3H)-one]
7.33		Cc1nc(-c2cn(C(C)c3ccc(C(F)(F)F)cc3F)nn2)cc(=O)[nH]1 (single isomer, unassigned) [Example 27, (R)- or (S)-6-(1-(1-(2-fluoro-4-(trifluoromethyl)phenyl)ethyl)-1H-1,2,3-triazol-4-yl)-2-methylpyrimidin-4(3H)-one]
5.69		Cc1nc(-c2nnc3n2CCC[C@]3(C)c2ccc(C(F)(F)F)cc2F)cc(=O)[nH]1 (single isomer, unassigned) [Example 80]
6.78		Cc1nc(-c2ncn(C(C)c3ccc(C(F)(F)F)cc3F)n2)cc(=O)[nH]1 (stereo not shown) [Example 86, 6-(1-(1-(2-Fluoro-4-(trifluoromethyl)phenyl)ethyl)-1H-1,2,4-triazol-3-yl)-2-methylpyrimidin-4(3H)-one]
< 5.53		Cc1nc(-c2nnn3c2CCC[C@]3(C)c2ccc(C(F)(F)F)cc2Cl)cc(=O)[nH]1 (single isomer, unassigned) [Example 88]
	16%	Cc1nc(-c2nnc(C(C)c3ccc(C(F)(F)F)cc3F)n2C)cc(=O)[nH]1 (single isomer, unassigned) [Example 63, (R)- or (S)-6-(5-(1-(2-fluoro-4-(trifluoromethyl)-phenyl)ethyl)-4-methyl-4H-1,2,4-triazol-3-yl)-2-methylpyrimidin-4(3H)-one]
7.54		CCC1(c2ccc(C(F)(F)F)cc2)CCCc2c(-c3cc(=O)[nH]c(C)n3)nnn21 (single isomer, unassigned) [Example 57, (S)- or (R)-6-(7-ethyl-7-(4-(trifluoromethyl)phenyl)-4,5,6,7-tetrahydro-[1,2,3]triazolo[1,5-a]pyridin-3-yl)-2-methylpyrimidin-4(3H)-one]
7.96		CCC(c1ccc(C(F)(F)F)cc1F)n1cc(-c2cc(=O)[nH]c(C)n2)nn1 (single isomer, unassigned) [Example 37, (R)- or (S)-6-(1-(1-(2-fluoro-4-(trifluoromethyl)phenyl)propyl-1H-1,2,3-triazol-4-yl)-2-methylpyrimidin-4(3H)-one]
8.77		Cc1nc(-c2cn(C(C)(C)c3ccc(C(F)(F)F)cc3Cl)nn2)cc(=O)[nH]1 [Example 30, 6-(1-(2-(2-chloro-4-(trifluoromethyl)phenyl)propan-2-yl)-1H-1,2,3-triazol-4-yl)-2-methylpyrimidin-4(3H)-one]
6.63		Cc1nc(-c2nnn3c2CCC[C@@]3(C)c2ccc(C(F)(F)F)cc2)cc(=O)[nH]1 (single isomer, unassigned) [Example 55]
	33%	Cc1nc(-c2nnn3c2CCCC3c2ccc(C(F)(F)F)cc2F)cc(=O)[nH]1 (single isomer, unassigned) [Example 49, (R)- or (S)-6-(7-(2-fluoro-4-(trifluoromethyl)phenyl)-4,5,6,7-tetrahydro-[1,2,3]triazolo[1,5-a]pyridin-3-yl)-2-methylpyrimidin-4(3H)-one]
6.86		Cc1nc(-c2nnn3c2CCCCC3c2ccc(C(F)(F)F)cc2)cc(=O)[nH]1 (single isomer, unassigned) [Example 52, (S)- or (R)-2-methyl-6-(8-(4-(trifluoromethyl)phenyl)-5,6,7,8-tetrahydro-4H-[1,2,3]triazolo[1,5-a]azepin-3-yl)pyrimidin-4(3H)-one]
7.23		Cc1nc(-c2cn(C(C)c3ccc(C4CC4)cc3Cl)nn2)cc(=O)[nH]1 (single isomer, unassigned) [Example 25, (R)- or (S)-6-(1-(1-(2-chloro-4-cyclopropylphenyl)ethyl)-1H-1,2,3-triazol-4-yl)-2-methylpyrimidin-4(3H)-one]

SMILES	pKi	inhibition at 3 µM
COc1cccc(Cc2nc(-c3nnn4c3CCCC4(C)c3ccc(C(F)(F)F)cc3F)cc(=O)[nH]2)c1 (single isomer, unassigned) [Example 91, (S)- or (R)-6-(7-(2-Fluoro-4-(trifluoromethyl)phenyl)-7-methyl-4,5,6,7-tetrahydro-[1,2,3]triazolo[1,5-a]pyridin-3-yl)-2-(3-methoxy-benzyl)pyrimidin-4(3H)-one]	9.25	
